The test system of the assay is KRAS patient-derived spheroids with HUVEC/MSC, viability. Description: Anticancer human tumor 941728-121-R-J1-PDC patient-derived lung adenocarcinoma cell line growth inhibition [KRAS2]. As to conditions: for pIC50: curve of first compound; for viability, T/C: stronger effect = lower value. A digest of the protocol: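 Combination screen of spheroid viability in tumor-cell co-cultures with endothelial (HUVEC) and mesenchymal stem cell stroma. Each agent was tested in half-log dilutions, topping at clinical Cmax or at 10 microM without a known Cmax.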

The mark [1] stands for this setting: second compound 0.1 µM, first compound 0.0316 µM.
Where [2] appears, read: second compound 0.1 µM, first compound 0.1 µM.
The mark [3] stands for this setting: second compound 0.316 µM, first compound 0.0316 µM.
Where [4] appears, read: second compound 0.316 µM, first compound 0.1 µM.
The mark [5] stands for this setting: second compound 1 µM, first compound 0.0316 µM.
Where [6] appears, read: second compound 1 µM, first compound 0.1 µM.
The mark [7] stands for this setting: second compound 3.16 µM, first compound 0.0316 µM.
[8] abbreviates: second compound 3.16 µM, first compound 0.1 µM.
[9] abbreviates: second compound 10 µM, first compound 0.0316 µM.
Setting [10] is: second compound 10 µM, first compound 0.1 µM.
Setting [11] is: second compound 0.1 µM, first compound 0.000316 µM.
Setting [12] is: second compound 0.1 µM, first compound 0.001 µM.
[13] abbreviates: second compound 0.1 µM, first compound 0.00316 µM.
The mark [14] stands for this setting: second compound 0.1 µM, first compound 0.01 µM.
The mark [15] stands for this setting: second compound 0.316 µM, first compound 0.000316 µM.
The mark [16] stands for this setting: second compound 0.316 µM, first compound 0.001 µM.
Where [17] appears, read: second compound 0.316 µM, first compound 0.00316 µM.
Where [18] appears, read: second compound 0.316 µM, first compound 0.01 µM.
Where [19] appears, read: second compound 1 µM, first compound 0.000316 µM.
Setting [20] is: second compound 1 µM, first compound 0.001 µM.
The mark [21] stands for this setting: second compound 1 µM, first compound 0.00316 µM.
Where [22] appears, read: second compound 1 µM, first compound 0.01 µM.
[23] abbreviates: second compound 3.16 µM, first compound 0.000316 µM.
[24] abbreviates: second compound 3.16 µM, first compound 0.001 µM.
Setting [25] is: second compound 3.16 µM, first compound 0.00316 µM.
The mark [26] stands for this setting: second compound 3.16 µM, first compound 0.01 µM.
The mark [27] stands for this setting: second compound 10 µM, first compound 0.000316 µM.
Where [28] appears, read: second compound 10 µM, first compound 0.001 µM.
[29] abbreviates: second compound 10 µM, first compound 0.00316 µM.
Where [30] appears, read: second compound 10 µM, first compound 0.01 µM.

pIC50: −log10 of the molar value.
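Note: spheroids exposed to agents for seven days before readout.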

Regarding `CCNC(=O)CC1N=C(c2ccc(Cl)cc2)c2cc(OC)ccc2-n2c(C)nnc21` (stereo not drawn) + C=CC(=O)N1CCN(c2nc(=O)n(-c3c(C)ccnc3C(C)C)c3nc(-c4c(O)cccc4F)c(F)cc23)C(C)C1, the pIC50 was more than 7.50 (second compound 0.1 µM); more than 7.50 (second compound 0.316 µM); more than 7.50 (second compound 1 µM); more than 7.50 (second compound 3.16 µM); more than 7.50 (second compound 10 µM). The viability, T/C under setting [1] is 25.4%; the viability, T/C under setting [2] was 27%; the viability, T/C (second compound 0.1 µM, first compound 0.316 µM) was 21.2%; the viability, T/C (second compound 0.1 µM, first compound 1 µM) is 14.3%; the viability, T/C (second compound 0.1 µM, first compound 3.16 µM) was 11.7%; the viability, T/C (second compound 0.1 µM, first compound 10 µM) was 10.8%. The viability, T/C was 27.4% under setting [3]; 23.8% under setting [4]; 20.4% (second compound 0.316 µM, first compound 0.316 µM); 14.7% (second compound 0.316 µM, first compound 1 µM); 13% (second compound 0.316 µM, first compound 3.16 µM); 10.3% (second compound 0.316 µM, first compound 10 µM). The viability, T/C reads like this: under setting [5], 28.9%; under setting [6], 28.7%; (second compound 1 µM, first compound 0.316 µM) 21.7%; (second compound 1 µM, first compound 1 µM) 16.2%; (second compound 1 µM, first compound 3.16 µM) 14%; (second compound 1 µM, first compound 10 µM) 10.7%. The viability, T/C is 30.4% under setting [7]; 28% under setting [8]; 22.5% (second compound 3.16 µM, first compound 0.316 µM); 18.3% (second compound 3.16 µM, first compound 1 µM); 11.6% (second compound 3.16 µM, first compound 3.16 µM); 8.77% (second compound 3.16 µM, first compound 10 µM). The viability, T/C is 34.1% under setting [9]; 31.6% under setting [10]; 23.4% (second compound 10 µM, first compound 0.316 µM); 15.1% (second compound 10 µM, first compound 1 µM); 11% (second compound 10 µM, first compound 3.16 µM); 8.28% (second compound 10 µM, first compound 10 µM).
As for `CC(C)n1nc(-c2ccc3oc(N)nc3c2)c2c(N)ncnc21`, the viability, T/C (compound 0.000316 µM) is 90% [middle of 5 runs].
As to `Cn1ncnc1[C@H]1c2n[nH]c(=O)c3cc(F)cc(c23)N[C@@H]1c1ccc(F)cc1` + C=CC(=O)N1CCN(c2nc(OCC3CCCN3C)nc3c2CCN(c2cccc4cccc(C)c24)C3)CC1CC#N, the pIC50 is, setting by setting: (second compound 0.0316 µM) more than 9.50; (second compound 0.1 µM) more than 9.50; (second compound 0.316 µM) more than 9.50; (second compound 1 µM) more than 9.50; (second compound 3.16 µM) more than 9.50. Further, the viability, T/C (second compound 0.0316 µM, first compound 0.000316 µM) is 24.6%; the viability, T/C (second compound 0.0316 µM, first compound 0.001 µM) was 23.2%; the viability, T/C (second compound 0.0316 µM, first compound 0.00316 µM) was 19.4%; the viability, T/C (second compound 0.0316 µM, first compound 0.01 µM) is 19.7%; the viability, T/C (second compound 0.0316 µM, first compound 0.0316 µM) is 17.4%; the viability, T/C (second compound 0.0316 µM, first compound 0.1 µM) is 17.5%. Further, the viability, T/C is 18.3% under setting [11]; 18.2% under setting [12]; 19.9% under setting [13]; 17.6% under setting [14]; 17.3% under setting [1]; 15.8% under setting [2]. The viability, T/C runs as follows: under setting [15], 18.2%; under setting [16], 18.9%; under setting [17], 17.9%; under setting [18], 16.2%; under setting [3], 16%; under setting [4], 17.1%. The viability, T/C was 17.6% under setting [19]; 17.5% under setting [20]; 13.5% under setting [21]; 18.3% under setting [22]; 15.5% under setting [5]; 14.2% under setting [6]. Besides, the viability, T/C was 0.11% under setting [23]; 0.2% under setting [24]; 0.09% under setting [25]; 0.11% under setting [26]; 0.16% under setting [7]; 0.23% under setting [8].
For `CN(C)C/C=C/C(=O)Nc1cc2c(Nc3ccc(F)c(Cl)c3)ncnc2cc1O[C@H]1CCOC1` + C=CC(=O)N1CCN(c2nc(=O)n(-c3c(C)ccnc3C(C)C)c3nc(-c4c(O)cccc4F)c(F)cc23)C(C)C1, the pIC50 runs as follows: (second compound 0.1 µM) more than 9.50; (second compound 0.316 µM) more than 9.50; (second compound 1 µM) more than 9.50; (second compound 3.16 µM) more than 9.50; (second compound 10 µM) more than 9.50. Also, the viability, T/C reads like this: under setting [11], 18.1%; under setting [12], 17.1%; under setting [13], 16.2%; under setting [14], 15.5%; under setting [1], 15.9%; under setting [2], 14.3%. The viability, T/C was 17% under setting [15]; 17.6% under setting [16]; 15.6% under setting [17]; 15.3% under setting [18]; 16.7% under setting [3]; 16.4% under setting [4]. For the same compound, the viability, T/C under setting [19] is 20.6%; the viability, T/C under setting [20] is 19.9%; the viability, T/C under setting [21] is 18.1%; the viability, T/C under setting [22] is 15.7%; the viability, T/C under setting [5] is 16.5%; the viability, T/C under setting [6] is 15.9%. Also, the viability, T/C reads like this: under setting [23], 21.5%; under setting [24], 20.9%; under setting [25], 19.4%; under setting [26], 17.9%; under setting [7], 18.9%; under setting [8], 17.3%. Further, the viability, T/C reads like this: under setting [27], 26.3%; under setting [28], 22.5%; under setting [29], 23.6%; under setting [30], 17.7%; under setting [9], 20.7%; under setting [10], 19%.
Turning to `COc1cc(OC)cc(N(CCNC(C)C)c2ccc3ncc(-c4cnn(C)c4)nc3c2)c1`, the viability, T/C runs as follows: (compound 0.1 µM) 104% [middle of 5 runs]; (compound 0.316 µM) 92% [middle of 5 runs].
For the compound `CC(C)n1nc(-c2ccc3oc(N)nc3c2)c2c(N)ncnc21` + CNCc1ccccc1-c1csc(C(C)Nc2nc(C)nc3cc(OC)c(OC)cc23)c1, the pIC50 is, setting by setting: (second compound 0.1 µM) 9.18; (second compound 0.316 µM) more than 9.50; (second compound 1 µM) more than 9.50; (second compound 3.16 µM) more than 9.50; (second compound 10 µM) more than 9.50. For the same compound, the viability, T/C reads like this: under setting [11], 49%; under setting [12], 59.2%; under setting [13], 37.3%; under setting [14], 34.3%; under setting [1], 34.5%; under setting [2], 31.4%. Besides, the viability, T/C under setting [15] is 44.7%; the viability, T/C under setting [16] was 45.2%; the viability, T/C under setting [17] was 35.9%; the viability, T/C under setting [18] is 23.1%; the viability, T/C under setting [3] was 24.1%; the viability, T/C under setting [4] is 16.6%. For the same compound, the viability, T/C under setting [19] was 34.8%; the viability, T/C under setting [20] was 29.3%; the viability, T/C under setting [21] was 15.9%; the viability, T/C under setting [22] was 13.6%; the viability, T/C under setting [5] is 11%; the viability, T/C under setting [6] is 7.65%. Moreover, the viability, T/C was 0.15% under setting [23]; 0.16% under setting [24]; 0.1% under setting [25]; 0.11% under setting [26]; 0.08% under setting [7]; 0.13% under setting [8]. The viability, T/C was 0.58% under setting [27]; 0.43% under setting [28]; 2.78% under setting [29]; 0.67% under setting [30]; 0.67% under setting [9]; 0.72% under setting [10].

(Values after PubChem BioAssay AID1963862 (Molecular Pharmacology Branch, DTP, NCI, 2024).)
